Data set [1] deals with Aeschynomene indica. Put plainly: whole plant or invertebrate.
From the text: (§1) X is % damage by uracil compound (a) of formula 1 at the rate of application of p kg/ha; Y is % damage by conventional herbicidal compound (b) at the rate of application of q kg/ha; and E is the expected damage caused by compounds (a) and (b) at a rate of application of p and q kg/ha.
(§2) The expected activity for a given combination of two herbicides can be calculated using equation 1 above.
In data set [2] the test system is Echinochloa crus. To be noted: for plant mortality, measured value: Echinochloa crus; for Echinochloa crus mortality, measured value: 20 days after treatment.
From the text: as §1, §2
Data set [3] deals with Digitaria sanguinalis. To be noted: for plant mortality, measured value: Digitaria sanguinalis; for Digitaria sanguinalis mortality, measured value: 20 days after treatment.
From the text: as §1, §2
In data set [4] the test system is Xanthium spinosum. Put plainly: whole plant or invertebrate.
From the text: as §1, §2
The test system of data set [5] is Abutilon theophrasti. Put plainly: whole plant or invertebrate.
From the text: as §1, §2
[6] abbreviates: read-out: Data (measured value) Aeschynomene indica, 50 g/ha.
[7] abbreviates: read-out: Data (measured value) Aeschynomene indica, 100 g/ha.
Setting [8] is: read-out: plant mortality, measured value, 25 g/ha.
Setting [9] is: read-out: plant mortality, measured value, 50 g/ha.
Where [10] appears, read: read-out: plant mortality, measured value, 100 g/ha.
The mark [11] stands for this setting: read-out: Data (measured value) Xanthium spinosum, 50 g/ha.
Setting [12] is: read-out: Data (measured value) Xanthium spinosum, 100 g/ha.
Setting [13] is: read-out: Data (measured value) Abutilon theophrasti, 50 g/ha.
Where [14] appears, read: read-out: Data (measured value) Abutilon theophrasti, 100 g/ha.
Where [15] appears, read: 480 h, read-out: Aeschynomene indica mortality, measured value.
Where [16] appears, read: 480 h, read-out: Xanthium spinosum mortality, measured value.
The mark [17] stands for this setting: 480 h, read-out: Abutilon theophrasti mortality, measured value.

In general, mortality refers to the percentage killed.

SMILES strings stand for the structures. Like-named read-outs stand apart in the source and are kept apart here.

In the case of `CCSC(C)CC1CC(=O)C(/C(CC)=N/OC/C=C/Cl)=C(O)C1` (stereo not drawn) [Clethodim], the pest or weed control at 25 g/ha in data set [1] (read-out: Data (measured value) Aeschynomene indica, 25 g/ha) turned out to be 0%; in data set [1] (setting [8]) it was 0%; in data set [4] (read-out: Data (measured value) Xanthium spinosum, 25 g/ha), 0%; in data set [4] (setting [8]), 0%; in data set [5] (read-out: Data (measured value) Abutilon theophrasti, 25 g/ha) it was 0%; in data set [5] (setting [8]), 0%. Further, the pest or weed control at 50 g/ha in data set [1] (setting [6]), in data set [1] (setting [9]), in data set [4] (setting [11]), in data set [4] (setting [9]), in data set [5] (setting [13]) and in data set [5] (setting [9]) was 0% throughout. Also, the pest or weed control at 100 g/ha in data set [1] (setting [7]), in data set [1] (setting [10]), in data set [4] (setting [12]), in data set [4] (setting [10]), in data set [5] (setting [14]) and in data set [5] (setting [10]) was 0% throughout. Further, the “Data (measured value) Echinochloa crus” value in data set [2] (25 g/ha) amounted to 11; in data set [2] (50 g/ha), 31; in data set [2] (100 g/ha), 65. In addition, the “plant mortality, measured value” in data set [2] (25 g/ha) came out at 11; in data set [2] (50 g/ha), 31; in data set [2] (100 g/ha), 65; in data set [3] (25 g/ha) it was 6; in data set [3] (50 g/ha), 19; in data set [3] (100 g/ha), 45. Also, the “Data (measured value) Digitaria sanguinalis” value in data set [3] (25 g/ha) came to 6; in data set [3] (50 g/ha) it was 19; in data set [3] (100 g/ha), 45.
Take `COC(=O)CCNC(=O)C(C)Oc1cc(-n2c(=O)cc(C(F)(F)F)n(C)c2=O)c(F)cc1Cl` (stereo not drawn) [Compound 1, 3-[{2-[2-chloro-5-(3,6-dihydro-3-methyl-2,6-dioxo-4-trifluoromethyl-1(2H)-pyrimidinyl)-4-fluorophenoxy]-1-oxopropyl}amino]propionic acid methyl ester]: the mortality at 4 g/ha in data set [1] (setting [15]) is 18%; in data set [4] (setting [16]), 11%; in data set [5] (setting [17]), 17%. In addition, the mortality at 8 g/ha in data set [1] (setting [15]) came to 45%; in data set [4] (setting [16]) it was 39%; in data set [5] (setting [17]) it was 45%. For the same molecule, the mortality at 16 g/ha in data set [1] (setting [15]) is 60%; in data set [4] (setting [16]), 52%; in data set [5] (setting [17]), 60%. The “Echinochloa crus mortality, measured value” (shortened to “Echinochloa crus mortality”) in data set [2] (4 g/ha) turned out to be 0%; in data set [2] (8 g/ha), 5%; in data set [2] (16 g/ha) it was 17%. Further, the entries for the “Digitaria sanguinalis mortality, measured value” (“Digitaria sanguinalis mortality” below) in data set [3] (4 g/ha), in data set [3] (8 g/ha) and in data set [3] (16 g/ha) were 0%, 5% and 20%, respectively.
Regarding `COc1c(Cl)ccc(Cl)c1C(=O)O` [Dicamba], the pest or weed control at 75 g/ha in data set [1] (read-out: Data (measured value) Aeschynomene indica, 75 g/ha) was 7%; in data set [4] (read-out: Data (measured value) Xanthium spinosum, 75 g/ha), 13%; in data set [5] (read-out: Data (measured value) Abutilon theophrasti, 75 g/ha) it was 9%. Besides, the pest or weed control at 150 g/ha is 23% in data set [1] (read-out: Data (measured value) Aeschynomene indica, 150 g/ha); 29% in data set [4] (read-out: Data (measured value) Xanthium spinosum, 150 g/ha); 20% in data set [5] (read-out: Data (measured value) Abutilon theophrasti, 150 g/ha). Further, the pest or weed control at 300 g/ha in data set [1] (read-out: Data (measured value) Aeschynomene indica, 300 g/ha) came to 51%; in data set [4] (read-out: Data (measured value) Xanthium spinosum, 300 g/ha), 62%; in data set [5] (read-out: Data (measured value) Abutilon theophrasti, 300 g/ha) it was 46%. The “Data (measured value) Echinochloa crus” value in data set [2] (75 g/ha), in data set [2] (150 g/ha) and in data set [2] (300 g/ha) was 0 in each case. In addition, the “Data (measured value) Digitaria sanguinalis” value in data set [3] (75 g/ha), in data set [3] (150 g/ha) and in data set [3] (300 g/ha) was 0 each time.
For the molecule `CC(Oc1ccc(Oc2nc3ccc(Cl)cc3o2)cc1)C(=O)O` (stereo not drawn) [Fenoxaprop, reference compound], the mortality at 25 g/ha in data set [1] (setting [15]), in data set [4] (setting [16]) and in data set [5] (setting [17]) was 0% each time. For the same molecule, the mortality at 50 g/ha in data set [1] (setting [15]), in data set [4] (setting [16]) and in data set [5] (setting [17]) was 0% throughout. For the same molecule, the mortality at 100 g/ha in data set [1] (setting [15]), in data set [4] (setting [16]) and in data set [5] (setting [17]) was 0% in each case. The “Echinochloa crus mortality” value in data set [2] (25 g/ha) is listed as 13%; in data set [2] (50 g/ha), 31%; in data set [2] (100 g/ha), 65%. Further, the entries for the “Digitaria sanguinalis mortality” value in data set [3] (25 g/ha), in data set [3] (50 g/ha) and in data set [3] (100 g/ha) were 13%, 32% and 64%, respectively.
On to `CC(Oc1ccc(Oc2ccc(C(F)(F)F)cn2)cc1)C(=O)O` (stereo not drawn) [Fluazifop, reference compound], for which the mortality at 50 g/ha in data set [1] (setting [15]), in data set [4] (setting [16]) and in data set [5] (setting [17]) was 0% in each case. The mortality at 100 g/ha in data set [1] (setting [15]), in data set [4] (setting [16]) and in data set [5] (setting [17]) was 0% in each case. Moreover, the mortality at 200 g/ha in data set [1] (setting [15]), in data set [4] (setting [16]) and in data set [5] (setting [17]) was 0% each time. Besides, the “Echinochloa crus mortality” value in data set [2] (50 g/ha) was 10%; in data set [2] (100 g/ha), 26%; in data set [2] (200 g/ha), 61%. Further, the “Digitaria sanguinalis mortality” value in data set [3] (50 g/ha) was determined as 9%; in data set [3] (100 g/ha), 21%; in data set [3] (200 g/ha), 52%.
As for `Nc1c(Cl)c(F)nc(OCC(=O)O)c1Cl` [Fluroxypyr], the pest or weed control at 50 g/ha was 13% in data set [1] (setting [6]), 7% in data set [4] (setting [11]) and 9% in data set [5] (setting [13]). Also, the values for the pest or weed control at 100 g/ha in data set [1] (setting [7]), in data set [4] (setting [12]) and in data set [5] (setting [14]) were 27%, 23% and 26%, respectively. Moreover, the pest or weed control at 200 g/ha in data set [1] (read-out: Data (measured value) Aeschynomene indica, 200 g/ha) is 63%; in data set [4] (read-out: Data (measured value) Xanthium spinosum, 200 g/ha) it was 54%; in data set [5] (read-out: Data (measured value) Abutilon theophrasti, 200 g/ha) it was 53%. The “Data (measured value) Echinochloa crus” value in data set [2] (50 g/ha), in data set [2] (100 g/ha) and in data set [2] (200 g/ha) was 0 each time. Besides, the “Data (measured value) Digitaria sanguinalis” value in data set [3] (50 g/ha), in data set [3] (100 g/ha) and in data set [3] (200 g/ha) was 0 throughout.

The record behind these values is patent US10206399B2, “Herbicidal composition comprising uracil compound as active ingredient” (Dongbu Farm Hannong Co., Ltd., priority 2012, dated 2019).
